Results as given in ChEMBL document CHEMBL1795340, “A discovery of novel Mycobacterium tuberculosis pantothenate synthetase inhibitors based on the molecular mechanism of actinomycin D inhibition” (Bioorg Med Chem Lett, 2011).
Values after ≈ are worked out from the molar mass of the structure shown.

Experiments:
[1] = system: Mycobacterium tuberculosis; test: Antimycobacterial activity against drug-resistant Mycobacterium tuberculosis clinical isolate; assay type: functional
[2] = system: Mycobacterium tuberculosis; test: Antimycobacterial activity against rifampin and isoniazid-resistant Mycobacterium tuberculosis; assay type: functional

## COC(=O)c1cc2c(OCc3ccccc3)cc(N)cc2[nH]1
[1]
  MIC: 54 µM (≈ 16 µg/mL)
[2]
  MIC: 54 µM (≈ 16 µg/mL)
